tested on: CD8+ T cells specific to MA p265, NY p81 and mERK2 9m; experiment: Specific CD8+ T cell induction by CHP/long chain peptide vaccines in mice, intracellular cytokine staining of spleen cells; format: in vivo, BALB/c mice; details: FIG. 1; MEN antigens complexed with CHP, subcutaneous, CpG oligo DNA adjuvant; spleen cells one week after final administration
Excerpt: Long chain peptide antigens MEN, all containing three types of mouse CD8+ T cell epitope sequences (MA p265 (Sequence No. 27), NY p81 (Sequence No. 29), and mERK2 9m (Sequence No. 28)), were synthesized. The interepitope sequences between the respective epitopes were respectively six consecutive tyrosines (Y6) (Sequence No. 1), six consecutive glycines (G6) (Sequence No. 2), six consecutive prolines (P6) (Sequence No. 3), or six consecutive threonines (T6) (Sequence No. 4). Each long chain peptide antigen was complexed with cholesterol-modified pullulan (CHP), which is a type of delivery system, and administered as a vaccine to a mouse. In the process of administration, CpG oligo DNA was coadministered as an adjuvant. Spleen cells were collected one week after the final administration and the frequencies of CD8+ T cells specific to the respective epitope sequences were measured by an intracellular cytokine staining method.
Long chain peptide antigens NME, all containing three types of mouse CD8+ T cell epitope sequences (MA p265 (Sequence No. 27), NY p81 (Sequence No. 29), and mERK2 9m (Sequence No. 28)), were synthesized. The antigens differ from the MEN sequences shown in FIG. 1 in the order of the three types of epitopes. The interepitope sequences between the respective epitopes were respectively six consecutive tyrosines (Y6) (Sequence No. 5), six consecutive glycines (G6) (Sequence No. 6), or six consecutive prolines (P6) (Sequence No. 7). Vaccines containing the respective long chain peptide antigens were administered to mice in the same manner as in FIG. 1 and the frequencies of CD8+ T cells specific to the respective epitope sequences were measured by the intracellular cytokine staining method.
Long chain peptide antigens MEN, ENM, and NME, all containing three types of mouse CD8+ T cell epitope sequences (MA p265 (Sequence No. 27), NY p81 (Sequence No. 29), and mERK2 9m (Sequence No. 28)), were synthesized. MEN, ENM, and […] in the order of the three types of epitopes. The interepitope sequences between the respective epitopes were each six consecutive tyrosines (Y6) (Sequence Nos. 1, 5 and 8). Vaccines containing the respective long chain peptide antigens were administered to mice in the same manner as in FIG. 1 and the frequencies of CD8+ T cells specific to the respective epitope sequences were measured by the intracellular cytokine staining method.
Each long chain peptide was dissolved in dimethyl sulfoxide (DMSO) at a concentration of 10 mg/mL. CHP was dissolved in 6 M urea-containing phosphate buffered saline (PBS) at a concentration of 10 mg/mL 1 mL (10 mg) of the long chain peptide solution and 20 mL (200 mg) of the CHP solution were mixed and left to stand at room temperature overnight in a dark place. The liquid mixture was transferred into a dialysis membrane (molecular weight cutoff: 3,500; Thermo Fisher Scientific, Inc.) and dialyzed for 2 hours to overnight at 4° C. against 0.6 M urea-containing PBS of a volume ratio of not less than 100 times as the dialysis outer solution. Dialysis was then performed for 2 hours to overnight at 4° C. against 0.06 M urea-containing PBS of a volume ratio of not less than 100 times as the dialysis outer solution. Dialysis was performed again for 2 hours to overnight at 4° C. against PBS of a volume ratio of not less than 100 times as the dialysis outer solution. The dialyzed inner solution was collected, filtered through a filtration sterilization filter of 0.45 μm or 0.22 μm pore size, and thereafter the UV absorption at 280 nm was measured to determine the final concentration of the long chain peptide from its molecular extinction coefficient.
Each CHP/long chain peptide complex as the vaccine and the CpG oligo DNA as the adjuvant were administered at the same time to a mouse. Administration was performed by subcutaneous injection on the back of the mouse. […]

Sequence | induction of specific CD8+ T cells corresponding to all three types of epitopes
SNPARYEFLTTTTTTQYIHSANVLTTTTTTRGPESRLL (Long chain peptide antigen, containing three types of mouse CD8+ T cell epitope sequences (MA p265, NY p81, and mERK2 9m)) [MEN(T6)] | clearly induced

same assay, conditions: FIG. 3; NME antigens (different epitope order) complexed with CHP, CpG oligo DNA

Sequence | induction of specific CD8+ T cells corresponding to all three types of epitopes
RGPESRLLGGGGGGSNPARYEFLGGGGGGQYIHSANVL (Long chain peptide antigen, containing three types of mouse CD8+ T cell epitope sequences (MA p265, NY p81, and mERK2 9m)) [NME(G6)] | not observed for one or two types of epitopes among the three types of epitopes
RGPESRLLPPPPPPSNPARYEFLPPPPPPQYIHSANVL (Long chain peptide antigen, containing three types of mouse CD8+ T cell epitope sequences (MA p265, NY p81, and mERK2 9m)) [NME(P6)] | not observed for one or two types of epitopes among the three types of epitopes
RGPESRLLYYYYYYSNPARYEFLYYYYYYQYIHSANVL (Long chain peptide antigen, containing three types of mouse CD8+ T cell epitope sequences (MA p265, NY p81, and mERK2 9m)) [NME(Y6)] | clearly induced

same assay, conditions: FIG. 4; MEN, ENM, NME epitope orders, interepitope sequence fixed at Y6

Sequence | induction of specific CD8+ T cells corresponding to all three types of epitopes
QYIHSANVLYYYYYYRGPESRLLYYYYYYSNPARYEFL (Long chain peptide antigen, containing three types of mouse CD8+ T cell epitope sequences (MA p265, NY p81, and mERK2 9m)) [ENM(Y6)] | clearly induced
RGPESRLLYYYYYYSNPARYEFLYYYYYYQYIHSANVL (Long chain peptide antigen, containing three types of mouse CD8+ T cell epitope sequences (MA p265, NY p81, and mERK2 9m)) [NME(Y6)] | clearly induced

tested on: NY p157 specific CD8+ T cell clone 1G4 cells; experiment: Antigen presentation by LCL given CHP/long chain peptide vaccine, IFN-γ ELISPOT; format: cell-based, human; details: FIG. 10; NMW peptide complexed with CHP given to LCL as antigen-presenting cells
Excerpt: Long chain peptide antigens NMW, all containing three types of human CD8+ T cell epitope sequences (NY p157:HLA-A0201 restrictive, MA4 p143:HLA-A2402 restrictive, and WT1: HLA-A2402 restrictive p235), were synthesized. The interepitode sequences between the respective epitopes were the six consecutive amino acids shown in FIG. 10, namely Sequence Nos. 18-26. Each long chain peptide antigen was complexed with cholesterol-modified pullulan (CHP), which is a type of delivery system, and administered in vitro as a vaccine to an immortalized human B cell line (LCL). Using these human B cells as the antigen-presenting cells, they were co-cultured with CD8+ T cell clone 1G4 cells specific to NY p157 and the activation of the 1G4 cells due to antigen presentation was measured by an IFN-γ ELISPOT method. As a positive control, LCL administered with an NY p157 short chain peptide was used as the antigen-presenting cells, and as a negative control, LCL without antigen added was used as the antigen-presenting cells.
Cryostored LCL was rinsed with RPMI medium and suspended at 1.25×10^6/mL in X-VIVO15 medium. This was dispensed in 0.4 mL aliquots into polypropylene tubes, and 0.1 mL of a vaccine solution (0.1 mg/mL as peptide) was added to each tube. The cells were cultured for 24 hours at 37° C. in the presence of 5% CO2 and then used as antigen-presenting cells.
75 μL aliquots of anti-IFN-γ antibody for capture, diluted to an appropriate concentration, were dispensed into a 96-well plate (Millipore Corp., Multiscreen HA, MAHAS4510) specially designed for ELISPOT and left to stand overnight at 4° C. After discarding the liquid and rinsing with RPMI medium, 100 μL aliquots of RPMI medium containing 10% fetal bovine serum were dispensed and the plate was left to stand for not less than 1 hour at 37° C. The liquid was discarded, and the LCL prepared in (9) or (10) was adjusted to 5×10^4 cells/100 μL/well and added to each well. The cryostored CD8^+ T cell clones were thawed, rinsed, adjusted to 5×10^5/mL with RPMI medium, and thereafter added in 0.1 mL aliquots to each well. After culturing for 24 hours at 37° C. in the presence of 5% CO2, the liquid was discarded and the plate was rinsed well with phosphate buffered saline containing 0.05% Tween 20 (PBS-T). A biotin-labeled IFN-γ antibody for detection was diluted to an appropriate concentration and dispensed in 0.1 mL aliquots into each well. After letting stand overnight at 4° C., the plate was rinsed well with PBS-T, and an alkaline phosphatase-labeled streptavidin diluted to an appropriate concentration was added in 0.1 mL aliquots. After incubating for 1 hour at room temperature, the plate was rinsed well with PBS-T. A coloring solution was added in 0.1 mL aliquots and allowed to react for 5 minutes to 30 minutes at room temperature. When the formation of spots was observed, the reaction was stopped by rinsing with water.

Sequence | activation of 1G4 cells
SLLMWITQCAAAAAANYKRCFPVIAAAAAACMTWNQMNL (Long chain peptide antigen, containing three types of human CD8+ T cell recognition epitope sequences (NY p157, MA4 p143, and WT1 p235)) [NMW(A6)] | clearly observed
SLLMWITQCGGGGGGNYKRCFPVIGGGGGGCMTWNQMNL (Long chain peptide antigen, containing three types of human CD8+ T cell recognition epitope sequences (NY p157, MA4 p143, and WT1 p235)) [NMW(G6)] | not clearly confirmed
SLLMWITQCNNNNNNNYKRCFPVINNNNNNCMTWNQML (SLLMWITQCNNNNNNNYKRCFPVINNNNNNCMTWNQMNL; Long chain peptide antigen, containing three types of human CD8+ T cell recognition epitope sequences (NY p157, MA4 p143, and WT1 p235)) [NMW(N6)] | clearly observed
SLLMWITQCPPPPPPNYKRCFPVIPPPPPPCMTWNQMNL (Long chain peptide antigen, containing three types of human CD8+ T cell recognition epitope sequences (NY p157, MA4 p143, and WT1 p235)) [NMW(P6)] | not clearly confirmed
SLLMWITQCQQQQQQNYKRCFPVIQQQQQQCMTWNQMNL (Long chain peptide antigen, containing three types of human CD8+ T cell recognition epitope sequences (NY p157, MA4 p143, and WT1 p235)) [NMW(Q6)] | clearly observed
SLLMWITQCSSSSSSNYKRCFPVISSSSSSCMTWNQMNL (Long chain peptide antigen, containing three types of human CD8+ T cell recognition epitope sequences (NY p157, MA4 p143, and WT1 p235)) [NMW(S6)] | clearly observed
SLLMWITQCYYYYYYNYKRCFPVIYYYYYYCMTWNQMNL (Long chain peptide antigen, containing three types of human CD8+ T cell recognition epitope sequences (NY p157, MA4 p143, and WT1 p235)) [NMW(Y6)] | clearly confirmed
